Values of other authors in patent publication US6096864A, “Peptides for use in wound treatment” (Johnson & Johnson Medical, Ltd., priority 1998, dated 2000).

System: human fibroblast
Conditions: concentration range 2.5 mM to 25 mM

For Gly-Pro-Ala, the chemotactic activity is listed as “no chemotactic activity”.
